Test results: PMC6193035, “Novel small molecules affecting cell membrane as potential therapeutics for avian pathogenic Escherichia coli” (Scientific Reports, 2018)

Columns and labels:
[1] = system: E. coli Nissle 1917 and E. coli G58-1; test: Effect against beneficial microbes; type: cell-based, Escherichia coli; conditions: 100 µM
Experimental: SMs were screened against different beneficial microbes to determine their specificity as described previously. SMs were added at 100 µM to 100 µL of 0.05 OD600 adjusted bacterial cultures in specific growth media in 96-well plate, and plate was incubated under indicated conditions. The specific growth media and conditions required for beneficial microbes limited the use of minimal media. Following incubation, endpoint OD600 was measured and cultures from the wells with non-elevated OD600 were plated on selective agar plates to determine the bactericidal effect.

[2] = system: intracellular APEC O1 in Caco-2 cells; test: Intracellular survival assay; type: cell-based, Escherichia coli; conditions: for minimal effective concentration: Escherichia coli, O1, Caco-2, 6 h treatment, read-out: SMs intracellular APEC clearance concentration; for intracellular APEC clearance concentration as multiple of MIC (superscript): O1, Caco-2; for concentration at which the SM significantly (P < 0.01) reduced intracellular APEC (superscript of t-statistic): O1, Caco-2, 6 h
Method in brief: (§1)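 Readout: intracellular APEC CFU after Triton X-100 lysis and plating, normalised against 1% DMSO wells. Infection: MOI 10, 1 h macrophages, 3 h Caco-2.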

[3] = system: intracellular APEC O1 in HD11 cells; test: Intracellular survival assay; type: cell-based, Escherichia coli; conditions: for minimal effective concentration: Escherichia coli, O1, HD11, 6 h treatment, read-out: SMs intracellular APEC clearance concentration; for concentration at which the SM significantly (P < 0.01) reduced intracellular APEC (superscript of t-statistic): O1, HD11, 6 h
Method in brief: as §1

[4] = system: intracellular APEC O1 in THP-1 cells; test: Intracellular survival assay; type: cell-based, Escherichia coli; conditions: for minimal effective concentration: Escherichia coli, O1, THP-1, 6 h treatment, read-out: SMs intracellular APEC clearance concentration; for concentration at which the SM significantly (P < 0.01) reduced intracellular APEC (superscript of t-statistic): O1, THP-1, 6 h
Method in brief: as §1

[5] = system: intracellular APEC O2 in HD11 cells; test: Intracellular survival assay; type: cell-based, Escherichia coli; conditions: for minimal effective concentration: Escherichia coli, O2, HD11, 6 h treatment, read-out: SMs intracellular APEC clearance concentration; for intracellular APEC clearance concentration as multiple of MIC (superscript): O2, HD11; for concentration at which the SM significantly (P < 0.01) reduced intracellular APEC (superscript of t-statistic): O2, HD11, 6 h
Method in brief: as §1

[6] = system: intracellular APEC O78 in Caco-2 cells; test: Intracellular survival assay; type: cell-based, Escherichia coli; conditions: for minimal effective concentration: Escherichia coli, O78, Caco-2, 6 h treatment, read-out: SMs intracellular APEC clearance concentration; for intracellular APEC clearance concentration as multiple of MIC (superscript): O78, Caco-2; for concentration at which the SM significantly (P < 0.01) reduced intracellular APEC (superscript of t-statistic): O78, Caco-2, 6 h
Method in brief: as §1

[7] = system: intracellular APEC O78 in HD11 cells; test: Intracellular survival assay; type: cell-based, Escherichia coli; conditions: for minimal effective concentration: Escherichia coli, O78, HD11, 6 h treatment, read-out: SMs intracellular APEC clearance concentration; for intracellular APEC clearance concentration as multiple of MIC (superscript): O78, HD11; for concentration at which the SM significantly (P < 0.01) reduced intracellular APEC (superscript of t-statistic): O78, HD11, 6 h
Method in brief: as §1

[8] = system: intracellular APEC O78 in THP-1 cells; test: Intracellular survival assay; type: cell-based, Escherichia coli; conditions: for minimal effective concentration: Escherichia coli, O78, THP-1, 6 h treatment, read-out: SMs intracellular APEC clearance concentration; for intracellular APEC clearance concentration as multiple of MIC (superscript): O78, THP-1; for concentration at which the SM significantly (P < 0.01) reduced intracellular APEC (superscript of t-statistic): O78, THP-1, 6 h
Method in brief: as §1

[9] = system: E. coli BW25113; design: method as in https://pubchem.ncbi.nlm.nih.gov/bioassay/710; conditions: 100 µM; ref https://pubchem.ncbi.nlm.nih.gov/bioassay/710; cited from earlier work
[10] = system: APEC O78; test: Scanning electron microscopy; type: cell-based, Escherichia coli; conditions: 2X MBC
Experimental: The SMs treated APEC O78 cultures prepared above were also processed for scanning electron microscopy (SEM) as described previously. […] Briefly, one volume of bacterial culture was mixed with one volume of fixative (3% glutaraldehyde, 1% paraformaldehyde in 0.1 M potassium phosphate buffer, pH 7.2), and incubated at 4 °C overnight. The fixed bacterial cells were then centrifuged for 5 mins at 1,200 × g, washed twice with PBS, and resuspended in 1% osmium tetroxide for 1 h at room temperature in the dark, followed by serial dehydration of the sample in ethanol and platinum splatter-coating. Visualization and imaging of the sample was performed using a Hitachi S-4700 scanning electron microscope.

SMILES	effect on E. coli Nissle 1917 and E. coli G58-1 [1]	minimal effective concentration [2] [µM]	intracellular APEC clearance concentration as multiple of MIC (superscript) [2]	concentration at which the SM significantly (P < 0.01) reduced intracellular APEC (superscript of t-statistic) [2]	minimal effective concentration [3] [µM]	concentration at which the SM significantly (P < 0.01) reduced intracellular APEC (superscript of t-statistic) [3]	minimal effective concentration [4] [µM]	concentration at which the SM significantly (P < 0.01) reduced intracellular APEC (superscript of t-statistic) [4]	minimal effective concentration [5] [µM]	intracellular APEC clearance concentration as multiple of MIC (superscript) [5]	concentration at which the SM significantly (P < 0.01) reduced intracellular APEC (superscript of t-statistic) [5]	minimal effective concentration [6] [µM]	intracellular APEC clearance concentration as multiple of MIC (superscript) [6]	concentration at which the SM significantly (P < 0.01) reduced intracellular APEC (superscript of t-statistic) [6]	minimal effective concentration [7] [µM]	intracellular APEC clearance concentration as multiple of MIC (superscript) [7]	concentration at which the SM significantly (P < 0.01) reduced intracellular APEC (superscript of t-statistic) [7]	minimal effective concentration [8] [µM]	intracellular APEC clearance concentration as multiple of MIC (superscript) [8]	concentration at which the SM significantly (P < 0.01) reduced intracellular APEC (superscript of t-statistic) [8]	further results
CCN1/C(=C/c2ccc3ccccc3[n+]2CC)C=Cc2ccccc21 [SM9]	did not have effect	100	c (4X MIC)	c (2XMIC)	100	b (1X MIC)	50	b (1X MIC)	100	c (4X MIC)	c (2XMIC)	50	b (2X MIC)	b (1X MIC)	100	c (4X MIC)	c (2XMIC)	50	b (2X MIC)	b (1X MIC)	intracellular APEC clearance concentration as multiple of MIC (superscript) ([4]; O1, THP-1): b (2X MIC); growth inhibition of E. coli BW25113 [9]: 57%
CC(=O)OC(C(Br)C(=O)c1ccc([N+](=O)[O-])cc1)C(Cl)(Cl)Cl (stereo not shown) [SM10]	did not have effect	100	c (4X MIC)	b (1X MIC)	> 100	b (1X MIC)	> 100	b (1X MIC)	100	c (4X MIC)	b (1X MIC)	100	c (4X MIC)	b (1X MIC)	50	b (2X MIC)	c (2XMIC)	100	c (4X MIC)	b (1X MIC)	cell morphology in SEM [10]: shortened cells (~0.5 µM) and blebbing at both cell poles
